Results published in patent publication US9351989B2, “Substituted purine nucleosides, phosphoroamidate and phosphorodiamidate derivatives for treatment of viral infections” (INHIBITEX, INC., priority 2010, dated 2016).

Experiments:
[1] = test system: HCV replicon (Genotype 1b); experiment: Luciferase genotype 1b replicon potency assay; assay type: cell-based; details: Hepatitis C virus, Huh-7; luciferase-reporter genotype 1b subgenomic replicon cell line (Huh7); Renilla luciferase reporter activity
Method: (§1) Further to the above Examples, representative compounds, prepared according to the examples were tested for potency in an HCV replicon assay (Genotype 1b) for activity against the virus (EC50) and toxicity to the cells (CC50).
Huh7 Replicon Cell Lines and Cell Culture Conditions:
(§2) A luciferase-reporter genotype 1b subgenomic replicon cell line, and a genotype 1a full-length replicon cell line were obtained from Apath, LLC, Brooklyn, N.Y.: All cell lines were passaged twice a week by splitting 4 or 6 fold. Cells were maintained in DMEM-high glucose medium (HyClone, Logan, Utah) supplemented with 9% FBS (HyClone), 2 mM glutamine (Invitrogen, Carlsbad, Calif.), 100 U/mL PenStrep (Invitrogen). Media also contained 0.25 mg/mL of the antibiotic G-418 to maintain stable expression of the replicon (Invitrogen). Incubation was performed at 37° C. in 5% CO2 atmosphere. Replicon cell lines were used until they accumulated 15-to-18 passages, after which cells were restarted from the frozen stock. Seeding cell counts were routinely determined using an automatic Cedex HiRes cell counter (Flownomics Analytical Instruments, Madison, Wis.) or manually using INCYTO C—Chip™ Disposable Hemacytometers (Fisher Scientific, Pittsburgh, Pa.).
The anti-HCV assays were done accordingly:
Luciferase Genotype 1b Replicon Potency Assay.
Replicon cells were seeded into white 96-well plates (Nunc/VWR) at a density of 2×10^4 cells/well in medium without G-418. A Stacker Multidrop Liquid Dispenser (MTX Lab Systems, Vienna, Va.) was employed to ensure uniform and fast cell seeding into multiple plates. 18-24 h after cell plating, inhibitors were added and cells were incubated for additional 24, 48, or 72 h (as indicated). Compounds were tested in triplicates and quadruplicates at 3× or 4× serial dilutions over a range of 0.0001-to-10 μM concentrations. HCV replication was monitored by Renilla luciferase reporter activity assay using Renilla luciferase reporter (Promega, Madison, Wis.) and a Veritas Luminometer (Turner Biosystems, Sunnyvale, Calif.). 50% and 90% inhibitory concentration (IC50 and IC90) values were calculated as the concentration of compound that results correspondingly in 50% and 90% decreases in the reporter expression as compared to untreated cells. The values were determined by non-linear regression (four-parameter sigmoidal curve fitting) analysis.

[2] = Cytotoxicity assay (CellTiter-Glo); assay type: cell-based; details: human, Huh7 HCV genotype 1b replicon cells; toxicity to the cells; 72 h incubation; CellTiter-Glo cell viability
Method: as §1, §2
The cell cytotoxicity assay data was obtained as described below:
Cells were seeded into 96-well plates at a density of 2×10^4 cells per well. 24 h after cell plating, 11 serial 2× compound dilutions, starting with 100 μM, were applied to the testing plates (3 repeats per compound dilution). Each testing plate was run with a “no-compound” control. Incubation with compounds was continued at 37° C. in a CO2 incubator for 72 h. To determine cell viability, the CellTiter-Glo® assay (Promega, Madison, Wis.) was performed according to the manufacturer's protocol. The compound concentration resulting in 50% luminescent signal was reported as the CC50 concentration.

Row | Compound | IC50 [1] [nM] | CC50 at 72 h [2] [µM]
1 | COc1nc(N)nc2c1nc(I)n2[C@@H]1O[C@H](COP(=O)(N[C@@H](C)C(=O)OCCC(C)(C)C)N[C@@H](C)C(=O)OCCC(C)(C)C)[C@@H](O)[C@@]1(C)O [Example 22, (2S,2′S)-Bis(3,3-Dimethylbutyl) 2,2′-((((2R,3R,4R,5R)-5-(2-Amino-8-iodo-6-methoxy-9H-purin-9-yl)-3,4-dihydroxy-4-methyltetrahydrofuran-2-yl)methoxy)phosphoryl)bis(azanediyl)dipropanoate] | 72 | 11
2 | COc1nc(N)nc2c1nc(I)n2[C@@H]1O[C@H](COP(=O)(N[C@@H](C)C(=O)OCC(C)(C)C)N[C@@H](C)C(=O)OCC(C)(C)C)[C@@H](O)[C@@]1(C)O [Example 23, (2S,2′S)-Neopentyl 2,2′-((((2R,3R,4R,5R)-5-(2-Amino-8-iodo-6-methoxy-9H-purin-9-yl)-3,4-dihydroxy-4-methyltetrahydrofuran-2-yl)methoxy)phosphoryl)bis(azanediyl)dipropanoate] | 110 | 53
3 | COc1nc(N)nc2c1nc(Br)n2[C@@H]1O[C@H](COP(=O)(N[C@@H](C)C(=O)OCC(C)(C)C)N[C@@H](C)C(=O)OCC(C)(C)C)[C@@H](O)[C@@]1(C)O [Example 24, (2S,2′S)-Neopentyl 2,2′-((((2R,3R,4R,5R)-5-(2-Amino-8-bromo-6-methoxy-9H-purin-9-yl)-3,4-dihydroxy-4-methyltetrahydrofuran-2-yl)methoxy)phosphoryl)bis(azanediyl)dipropanoate] | > 40000 | > 100
4 | COc1nc(N)nc2c1nc(Cl)n2[C@@H]1O[C@H](COP(=O)(N[C@@H](C)C(=O)OCC(C)(C)C)N[C@@H](C)C(=O)OCC(C)(C)C)[C@@H](O)[C@@]1(C)O [Example 25, (2S,2′S)-Neopentyl 2,2′-((((2R,3R,4R,5R)-5-(2-Amino-8-chloro-6-methoxy-9H-purin-9-yl)-3,4-dihydroxy-4-methyltetrahydrofuran-2-yl)methoxy)phosphoryl)bis(azanediyl)dipropanoate] | 10000 | > 100
5 | COc1nc(N)nc2c1nc(I)n2[C@@H]1O[C@H](COP(=O)(N[C@@H](C)C(=O)OC2CCCCC2)N[C@@H](C)C(=O)OC2CCCCC2)[C@@H](O)[C@@]1(C)O [Example 26, (2S,2′S)-Dicyclohexyl 2,2′-((((2R,3R,4R,5R)-5-(2-Amino-8-iodo-6-methoxy-9H-purin-9-yl)-3,4-dihydroxy-4-methyltetrahydrofuran-2-yl)methoxy)phosphoryl)bis(azanediyl)dipropanoate] | 130 | 54
